Measured values as given in ChEMBL document CHEMBL4732067, “Synthesis and evaluation of new compounds bearing 3-(4-aminopiperidin-1-yl)methyl magnolol scaffold as anticancer agents for the treatment of non-small cell lung cancer via targeting autophagy” (Eur J Med Chem, 2021).
Calls of active or inactive are those of the source. The calls are words filed in the database; no cut-off is given here.

Key:
[1] = tested on: NCI-H1975; assay: Antiproliferative activity against human NCI-H1975 cells assessed as reduction in cell viability after 72 hrs by MTT assay; assay type: functional, cell-based; settings: NCI-H1975, 72 h
[2] = tested on: NCI-H460; assay: Induction of autophagy in human NCI-H460 cells assessed as up regulation of LC3-2 protein expression after 24 hrs by Western blot analysis; assay type: functional, cell-based; settings: dose 0.5-10 µM
[3] = tested on: NCI-H460; assay: Induction of cell cycle arrest in human NCI-H460 cells assessed as accumulation at G2/M phase at 5 uM incubated for 24 hrs by propidium iodide staining based flow cytometry (reference value: 16.71 %); assay type: functional
[4] = tested on: NCI-H441; assay: Antiproliferative activity against human NCI-H441 cells […] assessed as reduction in cell viability after 72 hrs by MTT assay; assay type: functional, cell-based; settings: NCI-H441, 72 h
[5] = tested on: NCI-H460; assay: Induction of apoptosis in human NCI-H460 cells assessed as early apoptotic cells at 5 uM after 48 hrs by Annexin V-FITC/propidium iodide staining based flow cytometric analysis (reference value: 3.980 %); assay type: functional
[6] = tested on: NCI-H460; assay: Induction of apoptosis in human NCI-H460 cells assessed as late apoptotic cells at 2 uM after 48 hrs by Annexin V-FITC/propidium iodide staining based flow cytometric analysis (reference value: 3.995 %); assay type: functional
[7] = Metabolic stability in human liver microsomes assessed as half life; assay type: ADME, Microsome
[8] = tested on: NCI-H460; assay: Induction of cell cycle arrest in human NCI-H460 cells assessed as accumulation at S phase at 0.5 uM incubated for 24 hrs by propidium iodide staining based flow cytometry (reference value: 29.32 %); assay type: functional
[9] = tested on: NCI-H460; assay: Induction of cell cycle arrest in human NCI-H460 cells assessed as accumulation at G2/M phase at 1 uM incubated for 24 hrs by propidium iodide staining based flow cytometry (reference value: 16.71 %); assay type: functional
[10] = Antiproliferative activity against human SPCA1 cells expressing wild type EGFR assessed as reduction in cell viability after 72 hrs by MTT assay; assay type: functional, cell-based; settings: SPCA1, 72 h
[11] = tested on: NCI-H460; assay: Antitumor activity against human NCI-H460 cells xenografted in nude BABL/c mouse assessed as tumor growth inhibition at 40 mg/kg, po administered once daily and measured every two days by caliper method relative to control; assay type: functional; settings: 48 h, read-out: TGI
[12] = tested on: NCI-H460; assay: Induction of apoptosis in human NCI-H460 cells assessed as viable cells at 5 uM after 48 hrs by Annexin V-FITC/propidium iodide staining based flow cytometric analysis (reference value: 91.528 %); assay type: functional; settings: read-out: Activity
[13] = tested on: NCI-H1650; assay: Antiproliferative activity against human NCI-H1650 cells expressing EGFR mutant assessed as reduction in cell viability after 72 hrs by MTT assay; assay type: functional, cell-based; settings: NCI-H1650, 72 h
[14] = tested on: NCI-H460; assay: Induction of apoptosis in human NCI-H460 cells assessed as late apoptotic cells at 10 uM after 48 hrs by Annexin V-FITC/propidium iodide staining based flow cytometric analysis (reference value: 3.995 %); assay type: functional
[15] = tested on: NCI-H460; assay: Induction of apoptosis in human NCI-H460 cells assessed as early apoptotic cells at 2 uM after 48 hrs by Annexin V-FITC/propidium iodide staining based flow cytometric analysis (reference value: 3.980 %); assay type: functional
[16] = tested on: NCI-H460; assay: Induction of apoptosis in human NCI-H460 cells assessed as late apoptotic cells at 5 uM after 48 hrs by Annexin V-FITC/propidium iodide staining based flow cytometric analysis (reference value: 3.995 %); assay type: functional
[17] = tested on: NCI-H460; assay: Induction of cell cycle arrest in human NCI-H460 cells assessed as accumulation at G2/M phase at 0.5 uM incubated for 24 hrs by propidium iodide staining based flow cytometry (reference value: 16.71 %); assay type: functional
[18] = tested on: NCI-H460; assay: Induction of autophagy-induced cell death in human H460 cells at 0.04 to 5 uM after 24 hrs in presence of chloroquine diphosphate by MTT assay; assay type: functional, cell-based; settings: dose 0.04-5 µM
[19] = tested on: NCI-H460; assay: Antitumor activity against human NCI-H460 cells xenografted in nude BABL/c mouse assessed as tumor growth inhibition at 20 mg/kg, po administered once daily and measured every two days in presence of chloroquine diphosphate by caliper method relative to control; assay type: functional; settings: 48 h, read-out: TGI
[20] = tested on: NCI-H460; assay: Induction of cell cycle arrest in human NCI-H460 cells assessed as accumulation at G0/G1 phase at 0.5 uM incubated for 24 hrs by propidium iodide staining based flow cytometry (reference value: 53.97 %); assay type: functional
[21] = tested on: NCI-H460; assay: Antitumor activity against human NCI-H460 cells xenografted in nude BABL/c mouse assessed as upregulation of LC3-II expression in tumor tissue at 20 mg/kg, po administered once daily in presence of chloroquine diphosphate by Western blot analysis; assay type: functional, organism-based
[22] = Toxicity in nude BALB/c mouse xenografted with C26 cells assessed as abnormalities in heart size and morphology at 50 mg/kg, po administered once daily; assay type: organism-based; settings: in vivo
[23] = Toxicity in nude BALB/c mouse xenografted with C26 cells assessed as abnormalities in lung size and morphology at 50 mg/kg, po administered once daily; assay type: organism-based; settings: in vivo
[24] = tested on: NCI-H460; assay: Induction of cell cycle arrest in human NCI-H460 cells assessed as accumulation at G0/G1 phase at 1 uM incubated for 24 hrs by propidium iodide staining based flow cytometry (reference value: 53.97 %); assay type: functional
[25] = tested on: NCI-H460; assay: Induction of apoptosis in human NCI-H460 cells assessed as viable cells at 2 uM after 48 hrs by Annexin V-FITC/propidium iodide staining based flow cytometric analysis (reference value: 91.528 %); assay type: functional; settings: read-out: Activity
[26] = tested on: NCI-H460; assay: Induction of cell cycle arrest in human NCI-H460 cells assessed as accumulation at S phase at 1 uM incubated for 24 hrs by propidium iodide staining based flow cytometry (reference value: 29.32 %); assay type: functional
[27] = tested on: NCI-H460; assay: Induction of apoptosis in human NCI-H460 cells assessed as necrotic cells at 1 uM after 48 hrs by Annexin V-FITC/propidium iodide staining based flow cytometric analysis (reference value: 0.498 %); assay type: functional
[28] = tested on: NCI-H460; assay: Induction of apoptosis in human NCI-H460 cells assessed as viable cells at 1 uM after 48 hrs by Annexin V-FITC/propidium iodide staining based flow cytometric analysis (reference value: 91.528 %); assay type: functional; settings: read-out: Activity
[29] = tested on: NCI-H460; assay: Induction of cell cycle arrest in human NCI-H460 cells assessed as accumulation at S phase at 5 uM incubated for 24 hrs by propidium iodide staining based flow cytometry (reference value: 29.32 %); assay type: functional
[30] = tested on: NCI-H460; assay: Induction of apoptosis in human NCI-H460 cells assessed as viable cells at 10 uM after 48 hrs by Annexin V-FITC/propidium iodide staining based flow cytometric analysis (reference value: 91.528 %); assay type: functional; settings: read-out: Activity
[31] = Toxicity in nude BALB/c mouse xenografted with C26 cells assessed as change in body weight at 50 mg/kg, po administered once daily and measured every two days; assay type: organism-based; settings: in vivo
[32] = tested on: NCI-H460; assay: Induction of autophagy in human NCI-H460 cells assessed as degradation of SQSTM1/p62 at 0.5 to 10 uM measured after 24 hrs by Western blot analysis; assay type: functional, cell-based; settings: dose 0.5-10 µM
[33] = tested on: L929; assay: Cytotoxicity against mouse L929 cells; assay type: cell-based
[34] = tested on: A549; assay: Antiproliferative activity against human A549 cells expressing wild type EGFR assessed as reduction in cell viability after 72 hrs by MTT assay; assay type: functional, cell-based; settings: A549, 72 h

- IC50 [1]: 930 nM
- IC50 [4]: 940 nM
- half-life [7]: 2.62 h
- IC50 [13]: 820 nM
- IC50 [34]: 910 nM
Compound: C=CCc1ccc(OC(C)C)c(-c2cc(CC=C)cc(CN3CCC(N)CC3)c2O)c1
- Activity [2]: Dose-dependent effect
- Activity [3]: 17.5%
- Activity [5]: 30.087%
- Activity [6]: 4.926%
- Activity [8]: 23.58%
- Activity [9]: 19.64%
- IC50 [10]: 1080 nM
- inhibition in vivo at 40 mg/kg [11]: 56.8%
- viability at 5 µM [12]: 53.5%
- Activity [14]: 33.48%
- Activity [15]: 5.363%
- Activity [16]: 15.76%
- Activity [17]: 21.64%
- Activity [18]: Active
- inhibition in vivo at 20 mg/kg [19]: 55.9%
- Activity [20]: 54.79%
- Activity [21]: Active
- Activity [22]: Non-Toxic
- Activity [23]: Non-Toxic
- Activity [24]: 56.47%
- viability at 2 µM [25]: 88.8%
- Activity [26]: 23.89%
- Activity [27]: 0.394%
- viability at 1 µM [28]: 91.1%
- Activity [29]: 22.61%
- viability at 10 µM [30]: 30%
- Activity [31]: Toxic
- Activity [32]: Active
- IC50 [33]: 6240 nM
